Data from US20150031554A1, “EXTRACELLULAR TELOMERE ASSAY” (The UAB Research Foundation, priority 2012, published 2015).

Tests used:
[1] = test system: U373, a human brain cancer cell line; test: Extracellular telomere release into conditioned media (qPCR); assay type: cell-based; details: in response to doxorubicin treatment (FIG. 2A)
Description: (§1) The samples to be tested were centrifuged at 1200×g for 6 minutes to remove residual cells. The supernatant was removed and centrifuged at 12,000× for 12 minutes to remove cellular debris. DNA was isolated from the final supernatant using a Qiagen DNA isolation kit. The DNA concentration of each sample was determined with the highly sensitive pico-green fluorometric assay (Invitrogen; Carlsbad, Calif.).
(§2) The obtained purified cell-free DNA was assayed for extracellular telomere sequences. Extracellular telomeres were measured using quantitative PCR (qPCR) with the widely accepted method of Cawthon (“Telomere measurement by quantitative PCR,” Nucleic Acids Research, 30:e47 (2002)). Other DNA sequences (actin, BRCA 1, alpha satellite DNA, and Alu repeats) were analyzed using published primers and conditions. Normal human genomic DNA (Roche; Basel, Switzerland) was used to create a telomere qPCR standard curve for the clinical specimens. For mouse standard curves, normal mouse genomic DNA isolated from murine peripheral blood cells was used.

[2] = test system: D54, a human brain cancer cell line; test: as above; assay type: cell-based; details: in response to doxorubicin treatment (FIG. 2B)
Description: as §1, §2

[3] = test system: human MDA-MB-23 1 breast cancer cells; test: Extracellular telomere release into cell-free conditioned media (qPCR); assay type: cell-based
Description: as §1, §2

G-quadruplex = details: versus duplex, single strand, and hairpins; method of Balasubramanian et al.; cited from earlier work

**Q.** Which extracellular telomere release [1] does the source give for `COc1cccc2c1C(=O)c1c(O)c3c(c(O)c1C2=O)C[C@@](O)(C(=O)CO)C[C@@H]3O[C@H]1C[C@H](N)[C@H](O)[C@H](C)O1` [doxorubicin] here?
**A.** extracellular telomere release

**Q.** What about the extracellular telomere release [2] of the same molecule?
**A.** extracellular telomere release

**Q.** And the extracellular telomere release ([3]; doxorubicin 10^−5 M, indicated times, Alu and alpha satellite sequences as controls (FIG. 1))?
**A.** specifically released

**Q.** And the “telomere enrichment in cell-free conditioned media” value ([3]; qPCR, compared with untreated cells or cells subjected to hypoxia, 2 independent experiments (FIG. 5))?
**A.** highly enriched

**Q.** Which selectivity of capture (G-quadruplex) does the source give for `NCCOc1cc(C(=O)Nc2cc(OCCN)c3ccccc3n2)nc(C(=O)Nc2cc(OCCN)c3ccccc3n2)c1` [compound 2, pyridostatin] here?
**A.** selective for G-quadruplex capture over other DNA structural motifs
